Columns and labels:
Format in all cases: in vivo
monoamine oxidase enzyme [1] = target: T1, monoamine oxidase enzyme (Mus musculus, UniProt Q8BW75); assay: MAO inhibition in mouse brain slices after intraperitoneal injection: deamination of [3H]phenethylamine; conditions: for inhibition at 4 mg/kg: dose 4 mg/kg intraperitoneal; for inhibition at 32 mg/kg: dose 32 mg/kg intraperitoneal; for ED50: effective dose for 50 % inhibition; for inhibition at 29 mg/kg: dose 29 mg/kg intraperitoneal
T1 construct: from tissue; host or cells: mouse brain slices (hypothalamus, thalamus, midbrain), ex vivo after i.p. dosing
T1 sequence (Q8BW75 1-520): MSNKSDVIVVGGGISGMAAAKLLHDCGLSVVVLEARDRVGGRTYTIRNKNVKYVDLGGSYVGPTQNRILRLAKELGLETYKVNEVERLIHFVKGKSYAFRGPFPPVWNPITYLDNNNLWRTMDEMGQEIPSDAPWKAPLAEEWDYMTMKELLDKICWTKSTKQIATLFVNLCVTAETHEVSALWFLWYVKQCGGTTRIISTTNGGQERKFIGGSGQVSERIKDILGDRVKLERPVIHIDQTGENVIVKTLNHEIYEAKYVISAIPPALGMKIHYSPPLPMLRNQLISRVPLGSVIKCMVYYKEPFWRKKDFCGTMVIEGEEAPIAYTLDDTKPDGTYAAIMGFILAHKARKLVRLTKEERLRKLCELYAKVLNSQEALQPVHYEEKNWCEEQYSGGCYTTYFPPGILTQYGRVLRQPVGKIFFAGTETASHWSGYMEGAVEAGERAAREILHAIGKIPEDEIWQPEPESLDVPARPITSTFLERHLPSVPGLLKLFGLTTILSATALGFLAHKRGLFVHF
Excerpt: (§1) It is not possible by experimental means to induce depressions in laboratory animals. In order to evaluate a possible antidepressive effect of new substances biochemical-pharmacological test methods must be resorted to. One such method, which seems to give good indication of the potential antidepressive effects of the test substances, is a test for monoamine oxidase enzyme inhibiting activity. The deamination of [^3H]phenethylamine, [^3H]tyramine, and [^14C]-5-hydroxytryptamine by brain slices was determined according to the following method.
(§2) Slices (100 mg) of the central part of the mouse brain including hypothalamus, thalamus, and midbrain were incubated for 5 min with 1 x 10^-7 M of the labeled substrate in 2.0 ml of Krebs-Henseleit's buffer, pH 7.4, containing […] of glucose, The slices were then homogenized in an all-glass homogenizer with 1.0 ml of 1 N HCl containing carrier amounts ([…]) of the nonlabeled amine and its deaminated acid product. An aliquot of 1.1 ml of a brain homogenate in 10 vol of 1 N HCl containing the substrate and product carriers was added to 0.5 ml of the incubation medium. The brain homogenate was added in order to facilitate the extraction of tyramine and 5-HT. The acid and neutral products were extracted into 6.0 ml of ethyl acetate by vigorous shaking for 10 s. After centrifugation, 4.0 ml of the organic phase was taken for determination of radicactivity, The remaining ethyl acetate was removed; the water phase was made alkaline with solid sodium carbonate and 1.0 ml of 0.5 M borate buffer, pH 10. The amine was then extracted into 6.0 ml of ethyl acetate and 4.0 ml of the organic phase was taken for the assay. The deamination of [^3H]tyramine and [^14C]-5-HT was determined simultaneously by utilizing the double-labeling technique. (S.B. Ross, A.L. Renyi, and S.-O. Ögren, Eur. J. Pharmacol., 17, 107 (1972)).
[…] The inhibition was expressed in percent and calculated on the total formation of acid and neutral products formed in the brain slices of animals treated with the test compounds or with saline.

monoamine oxidase enzyme [2] = assay: MAO inhibition in mouse brain slices after intraperitoneal injection: deamination of [3H]tyramine; conditions: for ED50: deamination of tyramine, effective dose for 50 % inhibition, 1 h after adm.; for inhibition of the MAO activity against tyramine (in words): mouse, in vivo
Excerpt: as §1, §2
(§3) Inhibition of the MAO activity in the brain slices was determined 1 h after the intraperitoneal injection of the test compound. The inhibition was expressed in percent and calculated on the total formation of acid and neutral products formed in the brain slices of animals treated with the test compounds or with saline.

monoamine oxidase enzyme [3] = target: T2, monoamine oxidase enzyme (Mus musculus, UniProt Q64133); assay: MAO inhibition in mouse brain slices after intraperitoneal injection: deamination of [14C]-5-hydroxytryptamine; conditions: for inhibition of the MAO activity against 5-hydroxytryptamine (in words): in vivo; for ED50: effective dose for 50 % inhibition
T2 construct: from tissue; host or cells: mouse brain slices (hypothalamus, thalamus, midbrain), ex vivo after i.p. dosing
T2 sequence (Q64133 1-526): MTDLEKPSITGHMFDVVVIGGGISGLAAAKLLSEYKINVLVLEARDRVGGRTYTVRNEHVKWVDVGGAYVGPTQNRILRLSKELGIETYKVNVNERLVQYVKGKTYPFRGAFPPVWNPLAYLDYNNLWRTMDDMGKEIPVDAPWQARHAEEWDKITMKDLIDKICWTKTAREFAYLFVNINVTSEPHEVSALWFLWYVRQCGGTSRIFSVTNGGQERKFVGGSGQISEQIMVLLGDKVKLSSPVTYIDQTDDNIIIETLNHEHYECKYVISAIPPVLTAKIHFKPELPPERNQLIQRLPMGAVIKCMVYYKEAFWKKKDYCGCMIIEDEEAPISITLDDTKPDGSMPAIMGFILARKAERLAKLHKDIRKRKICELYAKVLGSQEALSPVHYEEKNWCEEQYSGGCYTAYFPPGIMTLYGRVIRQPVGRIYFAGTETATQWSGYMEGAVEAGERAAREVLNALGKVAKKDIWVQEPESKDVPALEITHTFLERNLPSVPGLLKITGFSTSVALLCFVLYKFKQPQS
Excerpt: as §1, §2, §3

[4] = mouse, ip, deamination of phenethylamine, 1 h after adm.
[5] = mouse, ip, deamination of phenethylamine, 24 h after adm.
[6] = mouse, ip, deamination of 5-hydroxytryptamine, 1 h after adm.
[7] = comparison of ACS 104 with ACS 64

Structure (SMILES) | inhibition at 4 mg/kg (monoamine oxidase enzyme [1]; [4]) [%] | inhibition at 32 mg/kg (monoamine oxidase enzyme [1]; [4]) [%] | inhibition at 32 mg/kg (monoamine oxidase enzyme [1]; [5]) [%] | ED50 (monoamine oxidase enzyme [1]; [4]) [µmol/kg] | ED50 (monoamine oxidase enzyme [2]) [µmol/kg] | inhibition of the MAO activity against tyramine (in words) (monoamine oxidase enzyme [2]) | inhibition of the MAO activity against 5-hydroxytryptamine (in words) (monoamine oxidase enzyme [3]; mouse) | inhibition at 32 mg/kg (monoamine oxidase enzyme [3]; mouse, ip, deamination of 5-hydroxytryptamine, dose 32 mg/kg intraperitoneal, 1 h after adm.) [%] | ED50 (monoamine oxidase enzyme [3]; [6]) [µmol/kg] | potency relative to the prior art compound, inhibition of the MAO activity against phenethylamine (monoamine oxidase enzyme [1]; comparison of ED50-values of ACS 104 and ACS 64) | inhibition at 1 mg/kg (monoamine oxidase enzyme [1]; mouse, ip, deamination of phenethylamine, dose 1 mg/kg intraperitoneal, 1 h after adm.) [%] | inhibition at 29 mg/kg (monoamine oxidase enzyme [1]; [4]) [%] | inhibition at 29 mg/kg (monoamine oxidase enzyme [1]; [5]) [%] | potency relative to the prior art compound, MAO activity against tyramine (monoamine oxidase enzyme [2]; [7]) | potency relative to the prior art compound, MAO activity against 5-hydroxytryptamine (monoamine oxidase enzyme [3]; [7]) | inhibition at 29 mg/kg (monoamine oxidase enzyme [3]; mouse, ip, deamination of 5-hydroxytryptamine, dose 29 mg/kg intraperitoneal, 1 h after adm.) [%]
C=C=CCN(C)Cc1ccccc1.Cl [ACS 64, N-2,3-butadienyl--N-methylbenzylamine hydrochloride, reference compound] | 31 ± 7 | 86 ± 3 | 70 ± 1 | 50 | >150 | only weak inhibitors | only weak inhibitors | 16 ± 2 | > 150 | – | – | – | – | – | – | –
C=C=C(CN)Cc1ccccc1.Cl [ACS 104, 2-benzyl-2,3-butadienamine hydrochloride] | 67 ± 2 | – | – | 16 | <150 | only weak inhibitors | only weak inhibitors | – | ~150 | about three times as potent as the prior art compound | 19 ± 3 | 92 ± 1 | 39 ± 2 | somewhat, more potent than the prior art compound | somewhat, more potent than the prior art compound | 48 ± 2
